Test results published in ChEMBL document CHEMBL3045918, “Synthesis, crystal structure, and insecticidal activities of highly congested hexahydroimidazo[1,2-a]pyridine derivatives: effect of conformation on activities” (2010).

Key:
Assay type in all cases: functional
Mythimna separata [1] = test: Insecticidal activity against second-instar larvae Mythimna separata (Oriental armyworm) in compound treated corn leaves assessed as mortality at 500 mg/L measured after 48 hr
Aphis craccivora [2] = test: Insecticidal activity against Aphis craccivora (cowpea aphid) in compound treated horsebean plant leaves assessed as mortality measured after 24 hr by leaf-dip method
Aphis craccivora [3] = test: Insecticidal activity against Aphis craccivora (cowpea aphid) in compound treated horsebean plant leaves assessed as mortality at 500 mg/L measured after 24 hr by leaf-dip method
Nilaparvata lugens [4] = test: Insecticidal activity against compound resistant second-instar larvae Nilaparvata lugens (brown planthopper) in compound rice seedlings assessed as toxicity at 25 degC measured after 6 days relative to control
Nilaparvata lugens [5] = test: Insecticidal activity against compound sensitive second-instar larvae Nilaparvata lugens (brown planthopper) in compound rice seedlings assessed as toxicity at 25 degC measured after 6 days relative to control
Nilaparvata lugens [6] = test: Insecticidal activity against compound resistant second-instar larvae Nilaparvata lugens (brown planthopper) in compound rice seedlings assessed as mortality at 25 degC measured after 6 days; conditions: 144 h
Nilaparvata lugens [7] = test: Insecticidal activity against compound sensitive second-instar larvae Nilaparvata lugens (brown planthopper) in compound rice seedlings assessed as mortality at 25 degC measured after 6 days; conditions: 144 h
Mythimna separata [8] = test: Insecticidal activity against second-instar larvae Mythimna separata (Oriental armyworm) in compound treated corn leaves assessed as mortality measured after 48 hr

Row | SMILES | mortality at 500 µg/mL (Mythimna separata [1]) [%] | LC50 (Aphis craccivora [2]) [µM] | mortality at 500 µg/mL (Aphis craccivora [3]) [%] | Ratio (Nilaparvata lugens [4]) | Ratio (Nilaparvata lugens [5]) | LC50 (Nilaparvata lugens [6]) [µM] | LC50 (Nilaparvata lugens [7]) [µM] | LC50 (Mythimna separata [8]) [µM]
1 | O=[N+]([O-])C1=C2N(Cc3ccc(Cl)nc3)CCN2[C@H](c2ccco2)[C@@](C2=NCCN2Cc2ccc(Cl)nc2)([N+](=O)[O-])[C@@H]1c1ccco1 | 100 | 4.43 | 100 | 10.32 | 1.62 | 3.76 | 1.07 | 26.5
2 | Cc1ccc([C@@H]2C([N+](=O)[O-])=C3N(Cc4ccc(Cl)nc4)CCN3[C@H](c3ccc(C)o3)[C@@]2(C2=NCCN2Cc2ccc(Cl)nc2)[N+](=O)[O-])o1 | 100 | 1.31 | 100 | – | – | – | – | 43
3 | O=[N+]([O-])C1=C2N(Cc3ccc(Cl)nc3)CCN2[C@H](c2cccs2)[C@@](C2=NCCN2Cc2ccc(Cl)nc2)([N+](=O)[O-])[C@@H]1c1cccs1 | 100 | 46.8 | 100 | – | – | – | – | 44.1
4 | O=[N+]([O-])/N=C1\NCCN1Cc1ccc(Cl)nc1 [IMIDACLOPRID] | 100 | 35 | 100 | 1 | 1 | 38.8 | 1.73 | 125
5 | Cc1ccc([C@@H]2C([N+](=O)[O-])=C3N(Cc4ccc(Cl)nc4)CCN3[C@H](c3ccc(C)s3)[C@@]2(C2=NCCN2Cc2ccc(Cl)nc2)[N+](=O)[O-])s1 | 100 | 3.79 | 100 | – | – | – | – | 27.9
6 | O=[N+]([O-])C1=C2N(Cc3ccc(Cl)nc3)CCN2[C@H](c2cccs2)[C@@](C2=NCCN2Cc2ccc(Cl)nc2)([N+](=O)[O-])[C@H]1c1cccs1 | 0 | – | 85.6 | – | – | – | – | –
7 | Cc1ccc([C@H]2C([N+](=O)[O-])=C3N(Cc4ccc(Cl)nc4)CCN3[C@H](c3ccc(C)s3)[C@@]2(C2=NCCN2Cc2ccc(Cl)nc2)[N+](=O)[O-])s1 | 0 | – | 100 | – | – | – | – | –
8 | O=[N+]([O-])C1=C2N(Cc3ccc(Cl)nc3)CCN2[C@H](c2ccco2)[C@@](C2=NCCN2Cc2ccc(Cl)nc2)([N+](=O)[O-])[C@H]1c1ccco1 | 0 | – | 87 | – | – | – | – | –
